Results published in ChEMBL document CHEMBL4507317, “Data for DCP probe BAY-899” (2021).

What was measured:
[1] = molecular target: Serine/threonine-protein kinase 32B (Homo sapiens) (UniProt Q9NY57); conditions: Compound concentration 1000.0 nM
[2] = molecular target: Homeodomain-interacting protein kinase 1 (Homo sapiens) (UniProt Q86Z02); conditions: Compound concentration 1000.0 nM
[3] = molecular target: Serine/threonine-protein kinase SIK1 (Homo sapiens) (UniProt P57059); conditions: Compound concentration 1000.0 nM
[4] = test system: Tyrosine-protein kinase ABL1 (Homo sapiens), P00519 [F317I]; conditions: Compound concentration 1000.0 nM
[5] = molecular target: Interleukin-1 receptor-associated kinase 3 (Homo sapiens) (UniProt Q9Y616); conditions: Compound concentration 1000.0 nM
[6] = molecular target: Mitotic checkpoint serine/threonine-protein kinase BUB1 (Homo sapiens) (UniProt O43683); conditions: Compound concentration 1000.0 nM
Rattus norvegicus = species: Rattus norvegicus; conditions: Compound concentration 10.0 uM
[7] = molecular target: Ephrin type-B receptor 1 (Homo sapiens) (UniProt P54762); conditions: Compound concentration 1000.0 nM
[8] = molecular target: Cyclin-dependent kinase 4 (Homo sapiens) (UniProt P11802); conditions: Compound concentration 1000.0 nM
[9] = molecular target: Serine/threonine-protein kinase PAK 2 (Homo sapiens) (UniProt Q13177); conditions: Compound concentration 1000.0 nM
[10] = molecular target: 5-hydroxytryptamine receptor 6 (Homo sapiens) (UniProt P50406); conditions: Compound concentration 10.0 uM
[11] = molecular target: Serine/threonine-protein kinase ULK2 (Homo sapiens) (UniProt Q8IYT8); conditions: Compound concentration 1000.0 nM
[12] = molecular target: Cyclin-dependent kinase 7 (Homo sapiens) (UniProt P50613); conditions: Compound concentration 1000.0 nM
[13] = molecular target: 1-phosphatidylinositol 3-phosphate 5-kinase (Homo sapiens) (UniProt Q9Y2I7); conditions: Compound concentration 1000.0 nM
[14] = molecular target: D(1B) dopamine receptor (Homo sapiens) (UniProt P21918); conditions: Compound concentration 10.0 uM
[15] = molecular target: Sigma intracellular receptor 2 (Homo sapiens, UniProt Q5BJF2); experiment: GPCRScan assay: inhibition of Sigma 2; set-up: radioligand conc. used [nm] 5.0, parental cells HEKT
[16] = test system: eIF-2-alpha kinase GCN2 (Homo sapiens), Q9P2K8 [S808G]; conditions: Compound concentration 1000.0 nM
[17] = molecular target: Serine/threonine-protein kinase BRSK2 (Homo sapiens) (UniProt Q8IWQ3); conditions: Compound concentration 1000.0 nM
[18] = molecular target: Cyclin-dependent kinase 14 (Homo sapiens) (UniProt O94921); conditions: Compound concentration 1000.0 nM
[19] = molecular target: Serine/threonine-protein kinase D2 (Homo sapiens) (UniProt Q9BZL6); conditions: Compound concentration 1000.0 nM
[20] = molecular target: Activin receptor type-2B (Homo sapiens) (UniProt Q13705); conditions: Compound concentration 1000.0 nM
[21] = molecular target: Dual specificity protein kinase CLK4 (Homo sapiens) (UniProt Q9HAZ1); conditions: Compound concentration 1000.0 nM
[22] = molecular target: Calcium/calmodulin-dependent protein kinase type 1G (Homo sapiens) (UniProt Q96NX5); conditions: Compound concentration 1000.0 nM
[23] = molecular target: Serine/threonine-protein kinase PLK2 (Homo sapiens) (UniProt Q9NYY3); conditions: Compound concentration 1000.0 nM
[24] = test system: Epidermal growth factor receptor (Homo sapiens), P00533 [UNDEFINED MUTATION]; conditions: Compound concentration 1000.0 nM
[25] = molecular target: Receptor-interacting serine/threonine-protein kinase 1 (Homo sapiens) (UniProt Q13546); conditions: Compound concentration 1000.0 nM
[26] = molecular target: T1, Muscarinic acetylcholine receptor M1 (Homo sapiens) (UniProt P11229); conditions: Compound concentration 10.0 uM
T1 sequence (whole entry): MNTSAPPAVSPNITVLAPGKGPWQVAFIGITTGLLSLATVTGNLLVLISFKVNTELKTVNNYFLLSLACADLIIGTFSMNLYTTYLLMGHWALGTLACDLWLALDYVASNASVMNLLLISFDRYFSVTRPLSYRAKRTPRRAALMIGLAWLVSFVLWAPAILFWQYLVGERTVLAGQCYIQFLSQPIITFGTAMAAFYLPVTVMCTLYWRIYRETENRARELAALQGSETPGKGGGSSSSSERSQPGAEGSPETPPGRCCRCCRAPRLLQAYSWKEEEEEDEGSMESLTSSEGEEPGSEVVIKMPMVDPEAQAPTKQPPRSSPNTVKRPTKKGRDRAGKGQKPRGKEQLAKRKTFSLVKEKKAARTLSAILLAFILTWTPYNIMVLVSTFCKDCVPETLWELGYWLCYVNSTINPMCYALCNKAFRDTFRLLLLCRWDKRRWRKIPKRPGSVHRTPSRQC

[27] = molecular target: Serine/threonine-protein kinase Nek1 (Homo sapiens) (UniProt Q96PY6); conditions: Compound concentration 1000.0 nM
[28] = molecular target: Microtubule-associated serine/threonine-protein kinase 1 (Homo sapiens) (UniProt Q9Y2H9); conditions: Compound concentration 1000.0 nM
Chain of Microtubule-associated serine/threonine-protein kinase 1 (Homo sapiens) (Q9Y2H9 whole entry, looked up): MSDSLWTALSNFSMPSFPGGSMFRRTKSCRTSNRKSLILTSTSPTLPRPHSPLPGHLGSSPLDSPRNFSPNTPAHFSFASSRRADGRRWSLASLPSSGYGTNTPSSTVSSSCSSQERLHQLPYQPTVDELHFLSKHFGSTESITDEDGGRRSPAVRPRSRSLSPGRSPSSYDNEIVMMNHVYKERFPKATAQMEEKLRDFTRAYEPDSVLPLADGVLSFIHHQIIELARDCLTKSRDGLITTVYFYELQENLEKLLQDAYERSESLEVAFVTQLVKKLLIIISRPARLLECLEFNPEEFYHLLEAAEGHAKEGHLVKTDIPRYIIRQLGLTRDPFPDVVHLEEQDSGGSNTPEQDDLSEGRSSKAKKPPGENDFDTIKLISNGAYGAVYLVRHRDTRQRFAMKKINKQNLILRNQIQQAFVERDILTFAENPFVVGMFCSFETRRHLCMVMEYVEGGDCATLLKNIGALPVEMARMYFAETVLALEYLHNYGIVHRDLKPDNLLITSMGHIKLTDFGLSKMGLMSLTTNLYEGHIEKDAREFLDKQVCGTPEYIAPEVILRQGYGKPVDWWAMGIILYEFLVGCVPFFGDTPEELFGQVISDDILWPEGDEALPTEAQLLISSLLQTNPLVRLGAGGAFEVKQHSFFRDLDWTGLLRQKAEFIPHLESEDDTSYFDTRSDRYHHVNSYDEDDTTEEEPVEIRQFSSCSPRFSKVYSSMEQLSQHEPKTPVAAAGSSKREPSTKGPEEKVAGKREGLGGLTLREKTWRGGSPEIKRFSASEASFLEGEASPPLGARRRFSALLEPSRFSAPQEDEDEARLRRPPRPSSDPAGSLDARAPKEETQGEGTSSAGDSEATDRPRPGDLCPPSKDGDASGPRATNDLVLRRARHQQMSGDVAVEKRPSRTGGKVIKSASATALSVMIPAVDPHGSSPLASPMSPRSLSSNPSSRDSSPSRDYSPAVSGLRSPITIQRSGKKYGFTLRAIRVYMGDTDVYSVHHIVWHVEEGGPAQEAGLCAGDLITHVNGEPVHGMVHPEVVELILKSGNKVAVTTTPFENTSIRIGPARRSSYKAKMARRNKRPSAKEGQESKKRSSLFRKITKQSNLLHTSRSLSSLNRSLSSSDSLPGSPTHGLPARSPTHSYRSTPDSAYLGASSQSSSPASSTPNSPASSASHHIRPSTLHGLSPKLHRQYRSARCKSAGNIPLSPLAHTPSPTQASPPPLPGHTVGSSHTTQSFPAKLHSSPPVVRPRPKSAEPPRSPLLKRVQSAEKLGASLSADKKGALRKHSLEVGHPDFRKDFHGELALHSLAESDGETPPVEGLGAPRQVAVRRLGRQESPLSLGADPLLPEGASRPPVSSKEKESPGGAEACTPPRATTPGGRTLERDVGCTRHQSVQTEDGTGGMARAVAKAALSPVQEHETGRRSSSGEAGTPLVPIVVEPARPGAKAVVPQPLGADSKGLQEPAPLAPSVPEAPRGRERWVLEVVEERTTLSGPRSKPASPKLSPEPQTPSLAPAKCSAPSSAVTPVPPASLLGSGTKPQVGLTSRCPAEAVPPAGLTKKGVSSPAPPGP

[29] = molecular target: Hepatocyte growth factor receptor (Homo sapiens) (UniProt P08581); conditions: Compound concentration 1000.0 nM
[30] = test system: Epidermal growth factor receptor (Homo sapiens), P00533 [L858R]; conditions: Compound concentration 1000.0 nM
[31] = molecular target: Dual specificity protein kinase CLK1 (Homo sapiens) (UniProt P49759); conditions: Compound concentration 1000.0 nM
[32] = molecular target: Ephrin type-A receptor 3 (Homo sapiens) (UniProt P29320); conditions: Compound concentration 1000.0 nM
[33] = molecular target: Atypical kinase COQ8A, mitochondrial (Homo sapiens) (UniProt Q8NI60); conditions: Compound concentration 1000.0 nM
[34] = molecular target: Serine/threonine-protein kinase tousled-like 1 (Homo sapiens) (UniProt Q9UKI8); conditions: Compound concentration 1000.0 nM
Chain of Serine/threonine-protein kinase tousled-like 1 (Homo sapiens) (Q9UKI8 whole entry): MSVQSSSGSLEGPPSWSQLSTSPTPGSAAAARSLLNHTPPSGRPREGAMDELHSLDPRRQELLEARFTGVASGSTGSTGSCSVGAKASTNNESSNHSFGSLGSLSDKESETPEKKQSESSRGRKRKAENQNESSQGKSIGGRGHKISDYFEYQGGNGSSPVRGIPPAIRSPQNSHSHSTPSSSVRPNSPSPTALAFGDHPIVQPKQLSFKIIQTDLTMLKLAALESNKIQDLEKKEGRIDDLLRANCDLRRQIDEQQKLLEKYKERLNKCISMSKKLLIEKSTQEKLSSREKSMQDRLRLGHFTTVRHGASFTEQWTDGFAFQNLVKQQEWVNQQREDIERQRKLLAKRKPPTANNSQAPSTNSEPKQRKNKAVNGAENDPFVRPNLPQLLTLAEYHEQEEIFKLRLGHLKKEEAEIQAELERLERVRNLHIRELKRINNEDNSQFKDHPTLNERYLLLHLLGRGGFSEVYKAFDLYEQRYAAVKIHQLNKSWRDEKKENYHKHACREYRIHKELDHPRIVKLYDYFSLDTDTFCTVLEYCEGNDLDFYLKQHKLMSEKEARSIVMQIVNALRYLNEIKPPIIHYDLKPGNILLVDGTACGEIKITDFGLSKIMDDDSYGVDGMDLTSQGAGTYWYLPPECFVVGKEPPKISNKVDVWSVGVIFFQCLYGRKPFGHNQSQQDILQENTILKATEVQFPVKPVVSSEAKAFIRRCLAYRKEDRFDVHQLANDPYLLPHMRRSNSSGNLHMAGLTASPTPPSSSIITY

[35] = test system: Receptor-type tyrosine-protein kinase FLT3 (Homo sapiens), P36888 [UNDEFINED MUTATION]; conditions: Compound concentration 1000.0 nM
Chain of Receptor-type tyrosine-protein kinase FLT3 (Homo sapiens), P36888 [UNDEFINED MUTATION] (P36888 whole entry, looked up, change not shown): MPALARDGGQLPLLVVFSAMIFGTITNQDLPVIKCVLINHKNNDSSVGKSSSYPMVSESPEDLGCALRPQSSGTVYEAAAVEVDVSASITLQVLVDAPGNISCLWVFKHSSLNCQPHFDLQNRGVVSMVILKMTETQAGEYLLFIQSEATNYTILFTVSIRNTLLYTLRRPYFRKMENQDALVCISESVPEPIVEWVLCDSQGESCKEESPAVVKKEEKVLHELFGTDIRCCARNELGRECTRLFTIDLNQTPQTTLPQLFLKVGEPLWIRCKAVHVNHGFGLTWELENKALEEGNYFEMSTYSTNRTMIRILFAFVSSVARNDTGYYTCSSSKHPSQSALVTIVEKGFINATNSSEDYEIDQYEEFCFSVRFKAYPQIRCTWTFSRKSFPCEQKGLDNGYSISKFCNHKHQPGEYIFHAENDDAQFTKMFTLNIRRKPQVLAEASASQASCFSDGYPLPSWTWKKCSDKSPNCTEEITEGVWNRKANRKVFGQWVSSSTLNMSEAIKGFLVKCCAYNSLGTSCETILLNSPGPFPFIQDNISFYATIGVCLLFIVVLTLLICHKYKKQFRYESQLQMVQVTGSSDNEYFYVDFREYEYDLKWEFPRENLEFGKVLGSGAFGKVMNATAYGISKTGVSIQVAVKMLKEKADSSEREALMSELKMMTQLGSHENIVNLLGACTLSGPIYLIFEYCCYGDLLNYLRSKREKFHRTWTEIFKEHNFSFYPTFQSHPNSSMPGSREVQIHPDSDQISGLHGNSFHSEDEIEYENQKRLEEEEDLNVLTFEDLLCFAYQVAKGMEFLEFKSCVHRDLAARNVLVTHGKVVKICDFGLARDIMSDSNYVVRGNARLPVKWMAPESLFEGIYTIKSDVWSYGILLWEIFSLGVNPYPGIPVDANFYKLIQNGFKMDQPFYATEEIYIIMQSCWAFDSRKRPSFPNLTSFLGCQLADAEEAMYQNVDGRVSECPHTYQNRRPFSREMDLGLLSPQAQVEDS

[36] = molecular target: Aurora kinase C (Homo sapiens) (UniProt Q9UQB9); conditions: Compound concentration 1000.0 nM
Chain of Aurora kinase C (Homo sapiens) (Q9UQB9 whole entry): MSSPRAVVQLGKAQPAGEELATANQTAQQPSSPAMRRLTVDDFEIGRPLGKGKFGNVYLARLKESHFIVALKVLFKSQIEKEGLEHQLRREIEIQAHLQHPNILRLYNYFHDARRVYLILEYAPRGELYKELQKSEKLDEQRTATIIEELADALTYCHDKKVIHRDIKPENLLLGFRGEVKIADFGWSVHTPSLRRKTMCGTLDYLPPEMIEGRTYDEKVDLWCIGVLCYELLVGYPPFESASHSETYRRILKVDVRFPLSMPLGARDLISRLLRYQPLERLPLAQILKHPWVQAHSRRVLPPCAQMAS

[37] = molecular target: Vascular endothelial growth factor receptor 1 (Homo sapiens) (UniProt P17948); conditions: Compound concentration 1000.0 nM
Chain of Vascular endothelial growth factor receptor 1 (Homo sapiens) (P17948 whole entry): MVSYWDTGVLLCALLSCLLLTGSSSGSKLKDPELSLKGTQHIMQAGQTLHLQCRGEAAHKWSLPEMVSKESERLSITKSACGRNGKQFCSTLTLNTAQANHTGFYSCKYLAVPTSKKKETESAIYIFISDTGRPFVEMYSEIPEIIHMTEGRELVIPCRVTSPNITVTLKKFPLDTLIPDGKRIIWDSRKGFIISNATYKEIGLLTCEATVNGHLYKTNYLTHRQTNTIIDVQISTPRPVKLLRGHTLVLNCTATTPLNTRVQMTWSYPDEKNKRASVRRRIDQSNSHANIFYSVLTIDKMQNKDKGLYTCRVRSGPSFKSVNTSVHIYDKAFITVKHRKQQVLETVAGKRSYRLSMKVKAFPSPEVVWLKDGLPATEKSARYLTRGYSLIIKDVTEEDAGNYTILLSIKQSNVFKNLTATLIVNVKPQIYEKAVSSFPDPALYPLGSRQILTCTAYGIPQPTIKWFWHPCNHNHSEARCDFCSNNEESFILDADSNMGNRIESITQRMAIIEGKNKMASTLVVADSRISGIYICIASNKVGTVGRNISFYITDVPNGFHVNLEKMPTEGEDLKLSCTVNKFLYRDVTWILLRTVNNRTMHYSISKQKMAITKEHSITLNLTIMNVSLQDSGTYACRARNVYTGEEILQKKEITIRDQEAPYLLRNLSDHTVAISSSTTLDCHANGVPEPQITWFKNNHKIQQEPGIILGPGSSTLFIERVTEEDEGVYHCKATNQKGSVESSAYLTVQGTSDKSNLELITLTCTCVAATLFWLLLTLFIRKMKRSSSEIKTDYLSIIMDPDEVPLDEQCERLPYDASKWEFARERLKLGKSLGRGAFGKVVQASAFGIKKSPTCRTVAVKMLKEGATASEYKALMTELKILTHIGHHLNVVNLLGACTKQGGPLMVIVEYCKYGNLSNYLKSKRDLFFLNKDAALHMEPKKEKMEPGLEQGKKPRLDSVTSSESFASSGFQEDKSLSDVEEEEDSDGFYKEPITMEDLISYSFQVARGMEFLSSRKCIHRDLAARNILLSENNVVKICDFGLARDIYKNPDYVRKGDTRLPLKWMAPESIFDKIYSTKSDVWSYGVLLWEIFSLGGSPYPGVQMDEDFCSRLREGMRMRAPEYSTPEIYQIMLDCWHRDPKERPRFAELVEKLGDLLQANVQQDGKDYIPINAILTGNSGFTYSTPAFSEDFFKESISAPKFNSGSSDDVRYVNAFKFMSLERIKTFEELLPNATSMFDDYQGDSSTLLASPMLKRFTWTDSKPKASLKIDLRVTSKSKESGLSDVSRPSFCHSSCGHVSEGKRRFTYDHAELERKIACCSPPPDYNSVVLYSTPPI

[38] = test system: Receptor-type tyrosine-protein kinase FLT3 (Homo sapiens), P36888 [UNDEFINED MUTATION]; conditions: Compound concentration 1000.0 nM; remark: listed apart in the source

SMILES	residual activity [1] [%]	residual activity [2] [%]	residual activity [3] [%]	residual activity [4] [%]	residual activity [5] [%]	residual activity [6] [%]	inhibition (Rattus norvegicus) [%]	residual activity [7] [%]	residual activity [8] [%]	residual activity [9] [%]	inhibition [10] [%]	residual activity [11] [%]	residual activity [12] [%]	residual activity [13] [%]	inhibition [14] [%]	Ki [15] [nM]	residual activity [16] [%]	residual activity [17] [%]	residual activity [18] [%]	residual activity [19] [%]	also measured
O=C(Nc1cnc(Oc2ccc(F)cc2)nc1)N1CCc2ncccc2[C@@H]1c1ccc(F)cc1 [BAY-899]	87	70	88	99	100	92	44.6	83	100	59	-3.59	93	100	63	10.1	2050	85	89	100	85	residual activity [20]: 85%; residual activity [21]: 100%; residual activity [22]: 97%; residual activity [23]: 100%; residual activity [24]: 100%; residual activity [25]: 99%; inhibition [26]: 7.56%; residual activity [27]: 84%; residual activity [28]: 96%; residual activity [29]: 100%; residual activity [30]: 92%; residual activity [31]: 80%; residual activity [32]: 82%; residual activity [33]: 95%; residual activity [34]: 90%; residual activity [35]: 79%; residual activity [36]: 81%; residual activity [37]: 88%; residual activity [38]: 100%
O=C(Nc1ccc(Oc2ccc(F)cc2)cc1)N1CCc2ncccc2[C@H]1c1ccc(F)cc1 [BAY-897]	72	96	99	94	100	98	33.4	100	96	52	16.9	98	77	95	29.1	676	100	95	94	100	residual activity [20]: 100%; residual activity [21]: 100%; residual activity [22]: 100%; residual activity [23]: 100%; residual activity [24]: 100%; residual activity [25]: 100%; inhibition [26]: -2.98%; residual activity [27]: 100%; residual activity [28]: 79%; residual activity [29]: 100%; residual activity [30]: 96%; residual activity [31]: 86%; residual activity [32]: 91%; residual activity [33]: 100%; residual activity [34]: 100%; residual activity [35]: 93%; residual activity [36]: 87%; residual activity [37]: 100%; residual activity [38]: 93%
